{
  "source": "patent US5478946A",
  "about": "“Guanidino compounds as regulators of nitric oxide synthase” (Abbott Laboratories, priority 1993, dated 1995)",
  "test_system": "RFL-6 rat fetal lung fibroblast cells",
  "assay": "cGMP assay, RFL-6 cells as detectors of EDRF/NO",
  "assay_type": "cell-based",
  "conditions": "presence of superoxide dismutase; 6-well plates",
  "description": "In those instances where it is suspected that the test substance is acting as a substrate rather than an inhibitor, the EDRF/NO may be estimated. For this confirmation bioassay, a method for quantification of endothelium-derived relaxing factor (EDRF) is utilized and is described in detail below. This technique, measuring cyclic GMP responses of RFL-6 rat fetal lung fibroblast cells to estimate NO or EDRF is sensitive, simple and quite useful for the evaluation of compounds that regulate EDRF/NO release from various endothelial cells, or other cells or tissues (such as for example RAW cells (induced with LPS) and N1E-115 cells). (cf. Ishii, K., et al., American Journal of Physiology, 1991,261:(2 pt 2) H598-603). The cyclic GMP measured is an indirect measure of the amount of EDRF/NO produced by NO synthase, so compounds that reduce the amount of cyclic GMP produced are termed inhibitors of NO synthase, and those that increase cyclic GMP in the absence of exogenous L-arginine are termed substrates or stimulators of NO synthase.\nThis is a new bioassay method for detection and quantification of endothelium-derived relaxing factor (EDRF) wherein cyclic GMP responses of RFL-6 rat fetal lung fibroblast cells are utilized to estimate the activity of nitric oxide (NO) and EDRF. […]",
  "data": [
    {"substance": "nitric oxide [NO]", "values": [
      {"measurement": "lowest concentration of NO to which RFL-6 cells responded", "result": 2, "unit": "nM"}
    ]}
  ]
}
